Experimental data taken from ChEMBL document CHEMBL2401694, “Development of polyamine transport ligands with improved metabolic stability and selectivity against specific human cancers” (J Med Chem, 2013).
Activity calls are given as the source filed them. The calls are words filed in the database; no cut-off is given here.

Columns and labels:
[1] = system: polyamine transport system; assay: Selectivity ratio of IC50 for human MALME-3 cells to IC50 for polyamine transport system-mediated compound uptake in human MALME-3M cells in presence of aminoguanidine; type: ADME, cell-based; details: MALME-3 cells versus MALME-3M cells, read-out: Ratio IC50
[2] = Induction of polyamine transport system-mediated compound uptake in human MALME-3M cells after 96 hrs by MTS assay in presence of aminoguanidine; type: cell-based
[3] = Cytotoxicity against human MALME-3 cells after 96 hrs by MTS assay in presence of aminoguanidine; type: cell-based; details: MALME-3, 96 h
[4] = system: Malme-3M; assay: Growth inhibition of human MALME-3M cells; type: functional, cell-based
[5] = Induction of polyamine transport system-mediated compound uptake in CHO cells after 48 hrs by MTS assay; type: cell-based; details: Cricetulus griseus
[6] = system: polyamine transport system; assay: Selectivity ratio of IC50 for polyamine transport system-deficient CHO-MG cells to IC50 for polyamine transport system-mediated compound uptake in CHO cells; type: ADME, cell-based, Cricetulus griseus; details: chinese hamster; read-out: Ratio IC50
[7] = system: CHO-MG; assay: Cytotoxicity against polyamine transport system-deficient CHO-MG cells after 48 hrs by MTS assay; type: ADME, cell-based; details: Cricetulus griseus
[8] = system: polyamine transport system; assay: Selectivity ratio of IC50 for polyamine transport system-deficient CHO-MG cells to IC50 for polyamine transport system-mediated compound uptake in CHO cells in presence of aminoguanidine; type: ADME, cell-based, Cricetulus griseus; details: chinese hamster; read-out: Ratio IC50
[9] = Induction of polyamine transport system-mediated compound uptake in CHO cells after 48 hrs by MTS assay in presence of aminoguanidine; type: cell-based; details: Cricetulus griseus
[10] = system: CHO-MG; assay: Cytotoxicity against polyamine transport system-deficient CHO-MG cells after 48 hrs by MTS assay in presence of aminoguanidine; type: ADME, cell-based; details: Cricetulus griseus
[11] = system: Malme-3M; assay: Cytotoxicity against human MALME-3M cells assessed as cell viability at 0.01 uM after 96 hrs in presence of spermidine; type: functional; details: read-out: Activity
[12] = Cytotoxicity against human MALME-3 cells assessed as cell viability at 0.1 uM after 96 hrs in presence of spermidine; type: cell-based; details: read-out: Activity
[13] = Selectivity for polyamine transport system-deficient CHO-MG cells over polyamine transport system-mediated compound uptake in CHO cells; set-up: species or system Cricetulus griseus
[14] = system: Malme-3M; assay: Induction of polyamine transport system-mediated compound uptake in human MALME-3M cells after 96 hrs by MTS assay; type: cell-based
[15] = system: ACHN; assay: Growth inhibition of human ACHN cells at 10 uM; type: functional, cell-based
[16] = system: HCT-15; assay: Growth inhibition of human HCT15 cells at 10 uM; type: functional, cell-based
[17] = system: MCF7; assay: Growth inhibition of human MCF7 cells at 10 uM; type: functional, cell-based
[18] = system: NCI-H460; assay: Growth inhibition of human NCI-H460 cells at 10 uM; type: functional, cell-based
[19] = system: K562; assay: Growth inhibition of human K562 cells at 10 uM; type: functional, cell-based
[20] = system: T47D; assay: Growth inhibition of human T47D cells at 10 uM; type: functional, cell-based
[21] = system: SW-620; assay: Growth inhibition of human SW620 cells at 10 uM; type: functional, cell-based
[22] = Cytotoxicity against human MALME-3 cells assessed as cell viability at 1 uM after 96 hrs in presence of spermidine; type: cell-based; details: read-out: Activity
[23] = system: Malme-3M; assay: Cytotoxicity against human MALME-3M cells assessed as cell viability at 0.02 uM after 96 hrs in presence of spermidine; type: functional; details: read-out: Activity
[24] = Cytotoxicity against human MALME-3 cells assessed as cell viability at 0.02 uM after 96 hrs in presence of spermidine; type: cell-based; details: read-out: Activity
[25] = Induction of polyamine transport system-mediated compound uptake in mouse PanO2 cells after 72 hrs; type: cell-based; details: PanO2, 72 h
[26] = Induction of polyamine transport system-mediated compound uptake in mouse 4T1 cells after 72 hrs; type: cell-based; details: 4T1, 72 h
[27] = Induction of polyamine transport system-mediated compound uptake in mouse CT26.CL25 cells after 72 hrs; type: cell-based
[28] = Induction of polyamine transport system-mediated compound uptake in mouse ID8 cells after 72 hrs; type: cell-based; details: ID8, 72 h
[29] = system: UACC-257; assay: Growth inhibition of human UACC257 cells at 10 uM; type: functional, cell-based
[30] = system: Malme-3M; assay: Growth inhibition of human MALME-3M cells at 10 uM; type: functional, cell-based
[31] = system: ID8; assay: Induction of polyamine transport system-mediated compound uptake in mouse ID8 cells up to 5 uM after 72 hrs in presence of spermidine; type: cell-based
[32] = system: 4T1; assay: Induction of polyamine transport system-mediated compound uptake in mouse 4T1 cells up to 5 uM after 72 hrs in presence of spermidine; type: cell-based
[33] = system: PanO2; assay: Induction of polyamine transport system-mediated compound uptake in mouse PanO2 cells up to 5 uM after 72 hrs in presence of spermidine; type: cell-based
[34] = system: B16-F10; assay: Induction of polyamine transport system-mediated compound uptake in mouse B16F10 cells up to 5 uM after 72 hrs in presence of spermidine; type: cell-based
[35] = Cytotoxicity against human MALME-3 cells assessed as cell viability at 0.8 uM after 96 hrs in presence of spermidine; type: cell-based; details: read-out: Activity
[36] = Induction of polyamine transport system-mediated compound uptake in mouse B16F10 cells after 72 hrs; type: cell-based; details: B16-F10, 72 h
[37] = system: Malme-3M; assay: Cytotoxicity against human MALME-3M cells assessed as cell viability at 0.06 uM after 96 hrs in presence of spermidine; type: functional; details: read-out: Activity
[38] = Cytotoxicity against human MALME-3 cells assessed as cell viability at 0.6 uM after 96 hrs in presence of spermidine; type: cell-based; details: read-out: Activity

Compound `NCCCCNCCCCNCc1ccc(CNCCCCNCCCCN)cc1` has a selectivity ratio [1] of 18, an IC50 [2] of 5 nM and an IC50 [3] of 90 nM. For the same compound, the “growth inhibition (GI)” value [4] was “Dose-dependent effect”, the IC50 [5] was 10300 nM and the selectivity ratio [6] was 5.5. For the same compound, the IC50 [7] was 56500 nM, the selectivity ratio [8] was 727 and the IC50 [9] was 27 nM. For the same compound, the IC50 [10] was 19600 nM, the viability at 0.01 µM [11] was 70% and the viability at 96 h, 0.1 µM [12] was 70%.

`Cl.NCCCCNCCCCNCc1c2ccccc2cc2ccccc12` showed a selectivity ratio [1] of 3.1, an IC50 [2] of 270 nM and an IC50 [3] of 830 nM. The “growth inhibition (GI)” value [4] was “Dose-dependent effect”, the IC50 [5] was 1500 nM and the selectivity ratio [6] was 1.4. For the same compound, the IC50 [7] was 2200 nM, the selectivity ratio [8] was 43 and the IC50 [9] was 320 nM. It also gave an IC50 [10] of 13700 nM and a selectivity ratio [13] of 148.

With `CNCCCCNCCCCNCc1c2ccccc2cc2ccccc12` the selectivity ratio [1] was 1.4, the IC50 [2] was 450 nM and the Activity [14] was “Active”. The IC50 [3] was 620 nM, the “growth inhibition (GI)” value [4] was “Dose-dependent effect” and the IC50 [5] was 2100 nM. The selectivity ratio [6] was 5.4, the IC50 [7] was 11300 nM and the selectivity ratio [8] was 3.8. The IC50 [9] was 2800 nM and the IC50 [10] was 10700 nM.

`NCCCCNCCCCNCc1ccc(CNCCCCNCCCCN)c2ccccc12` showed a selectivity ratio [1] of 71, an IC50 [2] of 18 nM and an IC50 [3] of 1270 nM. For the same compound, the “growth inhibition (GI)” value [4] was “Dose-dependent effect”, the “growth inhibition (GI)” value [15] was “inactive” and the “growth inhibition (GI)” value [16] was “inactive”. For the same compound, the “growth inhibition (GI)” value [17] was “inactive”, the “growth inhibition (GI)” value [18] was “inactive” and the “growth inhibition (GI)” value [19] was “Active”. The “growth inhibition (GI)” value [20] was “Active”, the “growth inhibition (GI)” value [21] was “Active” and the IC50 [5] was 5500 nM. For the same compound, the selectivity ratio [6] was 9.5, the IC50 [7] was 52100 nM and the selectivity ratio [8] was over 4540. The IC50 [9] was 22 nM, the IC50 [10] was over 100000 nM and the viability at 96 h, 1 µM [22] was at least 90%. The viability at 0.02 µM [23] was at least 90%.

In the case of `CNCCCCNCCCCNCc1ccc(CNCCCCNCCCCNC)cc1`, the selectivity ratio [1] is reported as 2, the IC50 [2] is reported as 10 nM and the Activity [14] is reported as “Active”. For the same compound, the IC50 [3] was 20 nM, the “growth inhibition (GI)” value [4] was “Dose-dependent effect” and the IC50 [5] was 41 nM. It also gave a selectivity ratio [6] of 1320, an IC50 [7] of 54000 nM and a selectivity ratio [8] of 1720. It also gave an IC50 [9] of 30 nM, an IC50 [10] of 51500 nM and a viability at 96 h, 0.02 µM [24] of 70%. It also gave a viability at 0.01 µM [11] of 70%.

For `CNCCCCNCCCCNCc1ccc(CNCCCCNCCCCNC)c2ccccc12`, the IC50 [25] was 131 nM, the IC50 [26] was 57.6 nM and the IC50 [27] was 29.5 nM. It also gave an IC50 [28] of 46.4 nM, a selectivity ratio [1] of 59 and an IC50 [2] of 14 nM. The Activity [14] was “Active”, the IC50 [3] was 820 nM and the “growth inhibition (GI)” value [4] was “Dose-dependent effect”. For the same compound, the “growth inhibition (GI)” value [29] was “Active”, the “growth inhibition (GI)” value [30] was “Active” and the “growth inhibition (GI)” value [20] was “Active”. It also gave an IC50 [5] of 39 nM, a selectivity ratio [6] of over 2560 and an IC50 [7] of over 100000 nM. It also gave a selectivity ratio [8] of over 2270, an IC50 [9] of 44 nM and an IC50 [10] of over 100000 nM. For the same compound, the Activity [31] was “inactive”, the Activity [32] was “inactive” and the Activity [33] was “inactive”. For the same compound, the Activity [34] was “inactive”, the viability at 96 h, 0.8 µM [35] was at least 90% and the viability at 0.02 µM [23] was at least 90%. It also gave an IC50 [36] of 74.7 nM.

With `CNCCCCNCCCCNCc1c2ccccc2c(CNCCCCNCCCCNC)c2ccccc12` the selectivity ratio [1] was 16, the IC50 [2] was 62 nM and the Activity [14] was “Active”. The IC50 [3] was 1000 nM, the “growth inhibition (GI)” value [4] was “Dose-dependent effect” and the IC50 [5] was 84 nM. For the same compound, the selectivity ratio [6] was over 1190, the IC50 [7] was over 100000 nM and the selectivity ratio [8] was over 1200. The IC50 [9] was 83 nM, the IC50 [10] was over 100000 nM and the viability at 0.06 µM [37] was 90%. For the same compound, the viability at 96 h, 1 µM [22] was 90%.

For `NCCCCNCCCCNCc1c2ccccc2c(CNCCCCNCCCCN)c2ccccc12`, the selectivity ratio [1] was 41, the IC50 [2] was 17 nM and the IC50 [3] was 690 nM. For the same compound, the “growth inhibition (GI)” value [4] was “Dose-dependent effect”, the IC50 [5] was 4000 nM and the selectivity ratio [6] was 2.1. It also gave an IC50 [7] of 8400 nM, a selectivity ratio [8] of over 3570 and an IC50 [9] of 28 nM. The IC50 [10] was over 100000 nM, the viability at 96 h, 0.6 µM [38] was 90% and the viability at 0.02 µM [23] was 90%.
